Results published in the NIST ThermoML archive (doi:10.1016/j.jct.2013.08.013).

Tests used:
[1] = 101 kPa, Liquid; for speed of sound: Frequency=2 MHz, Linear variable-path acoustic interferometer; for mass density: Vibrating tube method
[2] = xn = mol fraction of the nth substance listed; details: 101 kPa, Liquid; for speed of sound: Frequency=2 MHz, Linear variable-path acoustic interferometer; for mass density: Vibrating tube method

CCCCCO [pentan-1-ol]
[1]
Details	mass density [kg/m3]	speed of sound [m/s]
298.15 K	810.82	1276.2
303.15 K	807.1	1259.5
308.15 K	803.38	1248.1

CCCCCCCO [heptan-1-ol] + Cc1ccccc1Cl
[2], x2 = 0
Details	mass density [kg/m3]	speed of sound [m/s]
298.15 K	818.79	1326.5
303.15 K	815.21	1313.6
308.15 K	811.62	1293.1

CCCCCCO [hexan-1-ol]
[1]
Details	mass density [kg/m3]	speed of sound [m/s]
298.15 K	815.31	1303.2
303.15 K	811.7	1286.4
308.15 K	808.06	1269.7

Cc1ccccc1Cl [2-chlorotoluene]
[1]
Details	mass density [kg/m3]	speed of sound [m/s]
298.15 K	1077.38	1299.8
303.15 K	1072.8	1283.6
308.15 K	1068.21	1265.6

CCCCO [butan-1-ol] + Cc1ccccc1Cl
[2], x2 = 0
Details	mass density [kg/m3]	speed of sound [m/s]
298.15 K	805.95	1238.9
303.15 K	802.11	1223.4
308.15 K	798.24	1206.8

Cc1ccccc1Cl [2-chlorotoluene] + CCCCCO
[2]
Details	mass density, 298.15 K [kg/m3]	mass density, 303.15 K [kg/m3]	mass density, 308.15 K [kg/m3]	speed of sound, 298.15 K [m/s]	speed of sound, 303.15 K [m/s]	speed of sound, 308.15 K [m/s]
x1 = 0.0964	838.77	834.85	830.94	1280.2	1263	1250
x1 = 0.189	865.02	860.96	856.9	1282.2	1264	1250.2
x1 = 0.294	894.17	889.95	885.73	1281.9	1262.5	1247.7
x1 = 0.388	919.71	915.37	911.06	1280.9	1260.7	1244.5
x1 = 0.4962	948.58	944.07	939.74	1279	1258.1	1240.9
x1 = 0.5892	972.97	968.37	963.98	1277.5	1255.8	1238.3
x1 = 0.697	1000.83	996.18	991.75	1278	1256.1	1238
x1 = 0.8057	1028.54	1023.88	1019.37	1281	1260.1	1242.2
x1 = 0.8949	1051.02	1046.43	1041.83	1287	1267.2	1250
x1 = 1	1077.38	1072.8	1068.21	1299.8	1283.6	1265.6

CCCCO [butan-1-ol]
[1]
Details	mass density [kg/m3]	speed of sound [m/s]
298.15 K	805.95	1238.9
303.15 K	802.11	1223.4
308.15 K	798.24	1206.8

CCCO [propan-1-ol]
[1]
Details	mass density [kg/m3]	speed of sound [m/s]
298.15 K	799.65	1206.5
303.15 K	795.65	1188.6
308.15 K	791.65	1171.8

CCCCCO [pentan-1-ol] + Cc1ccccc1Cl
[2], x2 = 0
Details	mass density [kg/m3]	speed of sound [m/s]
298.15 K	810.82	1276.2
303.15 K	807.1	1259.5
308.15 K	803.38	1248.1

Cc1ccccc1Cl [2-chlorotoluene] + CCCO
[2]
Details	mass density, 298.15 K [kg/m3]	mass density, 303.15 K [kg/m3]	mass density, 308.15 K [kg/m3]	speed of sound, 298.15 K [m/s]	speed of sound, 303.15 K [m/s]	speed of sound, 308.15 K [m/s]
x1 = 0.089	837.16	832.98	828.75	1219	1200.1	1181.4
x1 = 0.1947	877.01	872.53	868.14	1232	1212.4	1192.8
x1 = 0.2938	910.41	905.71	901.22	1242.5	1221.5	1201.9
x1 = 0.3841	937.91	933.15	928.51	1249.2	1228.7	1207.8
x1 = 0.4898	967.13	962.37	957.66	1257	1234.8	1213.9
x1 = 0.5918	992.79	988	983.25	1262.5	1240.5	1219.2
x1 = 0.6979	1017.16	1012.42	1007.7	1269	1246.3	1225.2
x1 = 0.7955	1037.96	1033.25	1028.56	1275.3	1253.4	1234
x1 = 0.8932	1057.42	1052.78	1048.12	1284.4	1264.7	1245.4
x1 = 1	1077.38	1072.8	1068.21	1299.8	1283.6	1265.6
